Data set [1] deals with T1, KRasG12C (Homo sapiens, UniProt P01116, G12C).
T1 construct: biotin (biotinylated); made in house
Kind of data set: KRasG12C Mass Spectrometry adducting assay. In kind it is binding. Particulars: 10 μM test compound, 4 μM KRasG12C, 4 hours reaction; single experiment or average of two or more. On the procedure:
KRasG12C Mass Spectrometry Adducting Assay
Enzyme solutions were prepared in assay buffer containing 20 mM HEPES (pH 7.5), 5 mM MgCl2, and 150 mM NaCl. 4 μM GDP loaded biotinylated KRas^G12C was prepared in assay buffer and 50 μl added into each well of a 96 well polypropylene assay plate (Greiner, #651201) containing 500 nl of 1 mM test compounds (final concentration 10 μM), this was allowed to react for 4 hours before the addition of 50 μl 1% Formic acid to quench the reaction. The plate was sealed before reading on a Xevo G2 QTOF (Waters) and Acquity LC system (Waters). 10 μl of sample was injected onto a Xbridge BEH300; C4; 3.5 um; 2.1×50 mm column (Waters) running a 3 minute gradient. Blank samples were run in between each test sample.
Data was analysed in Mass Lynx software (Waters), the Total ion count (TIC) trace was used and the eluted protein peak data combined. Using the combined spectrum the data was deconvoluted using MaxEnt1 method. The peak area for apo-protein KRas^G12C (APO) and KRAS+relative cmpd mass (adduct) were measured, and a percentage adduct was calculated using the following calculation: Percent adduct=100*(area of adduct peak/(sum of APO+adduct peaks)

The nature of data set [2]: In vivo studies: oral bioavailability and clearance. The settings on record: rat.
The target in data set [3] is T1, KRasG12C. Kind of data set: KRasG12C functional assay (HTRF nucleotide exchange / Raf RBD binding). In kind it is biochemical. The settings on record: GDP loaded biotinylated KRasG12C, samples incubated 4 hrs, FRET readout; single experiment or average of two or more. In outline:
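Biotinylated GDP-loaded KRasG12C exchange driven by 0.08 μM SOS with 0.6 μM GTPγS, read by HTRF between europium and XL665 as active KRas binds 20 nM GST-Raf RBD. Buffer: 20 mM HEPES pH 7.5, 5 mM MgCl2, 150 mM NaCl, 0.01% Tween 20. IC50 from normalised FRET dose-response fits.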
On the technique in general: TR-FRET usually uses a lanthanide donor and a delayed reading to cut background.

A short description of data set [4]: Incubations with hepatic systems (turnover). In kind it is in vitro ADME. The settings on record: result in words.
Data set [5] in a line: Reactivity to glutathione (co-incubation with glutathione in buffer).

Structures are written as SMILES.

These results are taken from patent publication US10597405B2, “Chemical compounds” (ASTRAZENECA AB, priority 2017, dated 2020).

What is called IC50 is the concentration that inhibits the measured activity by half. A higher IC50 goes with weaker potency in that assay. As for `C=CC(=O)N1CCN2c3c(cnc4c(C)c(-c5c(O)cccc5F)c(Cl)cc34)OC[C@H]2C1` (single isomer, unassigned) [Compound 39], in data set [1], the “KRasG12C M.S. Binding Mean adduct %” value is listed as 94%. For the same compound, the clearance in data set [2] worked out at 6 mL/min/kg. Moreover, the “F (oral bioavailability), in words” value in data set [2] (result in words) was “complete”. This compound had an IC50 in data set [3] of 97 nM.
As a reminder, the bioavailability is the share of a dose that reaches the circulation, judged against a reference dose that is usually intravenous. Turning to `C=CC(=O)N1C[C@@H]2COc3cnc4c(C)c(-c5c(O)cccc5F)c(Cl)cc4c3N2C[C@H]1C` (single isomer, unassigned) [Compound 40], the “KRasG12C M.S. Binding Mean adduct %” value in data set [1] is 96%. For the same compound, the bioavailability in data set [2] (po, species not given, read-out: F value (oral bioavailability)) was 43%. Also, the IC50 in data set [3] amounted to 62 nM.
One may read the half-life as the time needed for the level to fall by half in the phase considered. As for `C=CC(=O)N1CCN2c3c(cnc4c(F)c(-c5c(O)cccc5F)c(Cl)cc34)N(C)C(=O)[C@H]2C1` (single isomer, unassigned) [Example 17, 3-acryloyl-11-chloro-9-fluoro-10-(2-fluoro-6-hydroxyphenyl)-6-methyl-2,3,4,4a-tetrahydro-1H-pyrazino[1′,2′:4,5]pyrazino[2,3-c]quinolin-5(6H)-one], the “turnover in incubations with hepatic systems” value in data set [4] is on record as “low turnover”. Further, in data set [1], the “KRasG12C M.S. Binding Mean adduct %” value came out at 100%. Moreover, the IC50 in data set [3] was 18 nM. In addition, in data set [5], the half-life was found to be 9.75 h.
For `C=CC(=O)N1C[C@@H]2C(=O)N(C)c3cnc4c(F)c(-c5c(O)cccc5F)c(Cl)cc4c3N2C[C@H]1C` (single isomer, unassigned) [Example 22], in that order: “low turnover”, 100%, 5 nM and 15.5 h.
With `C=CC(=O)N1CCN2c3c(cnc4cc(-c5c(O)cccc5F)c(Cl)c(OC)c34)OC[C@H]2C1` [Compound 83, 1-[(4aR)-11-Chloro-10-(2-fluoro-6-hydroxyphenyl)-12-methoxy-1,2,4a,5-tetrahydropyrazino[1′,2′:4,5][1,4]oxazino[2,3-c]quinolin-3(4H)-yl]prop-2-en-1-one], in data set [1], the “KRasG12C M.S. Binding Mean adduct %” value turned out to be 77%. Also, the IC50 in data set [3] amounted to 257 nM.
The matching figures for `CN(C)C/C=C/C(=O)N1CCN2c3c(cnc4cc(-c5c(O)cccc5F)c(Cl)cc34)OC[C@H]2C1` [Example 9, (2E)-1-[(4aR)-11-Chloro-10-(2-fluoro-6-hydroxyphenyl)-1,2,4a,5-tetrahydropyrazino[1′,2′:4,5][1,4]oxazino[2,3-c]quinolin-3(4H)-yl]-4-(dimethylamino)but-2-en-1-one]: 74% and 341 nM.
The matching figures for `C=CC(=O)N1CCN2c3c(nnc4cc(-c5c(O)cccc5F)c(Cl)cc34)OC[C@H]2C1` [Example 10, 1-((4aR)-11-Chloro-10-(2-fluoro-6-hydroxyphenyl)-1,2,4a,5-tetrahydropyrazino[1′,2′:4,5][1,4]oxazino[2,3-c]cinnolin-3(4H)-yl)prop-2-en-1-one]: 81% and 135 nM.
For `C=CC(=O)N1C[C@@H]2COc3cnc4cc(-c5c(O)cccc5F)c(Cl)cc4c3N2C[C@H]1C` [Example 11, 1-[(2R,4aR)-11-Chloro-10-(2-fluoro-6-hydroxyphenyl)-2-methyl-1,2,4a,5-tetrahydropyrazino[1′,2′:4,5][1,4]oxazino[2,3-c]quinolin-3(4H)-yl]prop-2-en-1-one], in that order: 93% and 47 nM.
As for `C=CC(=O)N1CCN2c3c(cnc4cc(-c5c(O)cccc5F)c(Cl)cc34)N(CCN(C)C)C[C@H]2C1` [Example 12, 1-((4aS)-11-Chloro-6-(2-(dimethylamino)ethyl)-10-(2-fluoro-6-hydroxyphenyl)-1,2,4,4a,5,6-hexahydro-3H-pyrazino[1′,2′:4,5]pyrazino[2,3-c]quinolin-3-yl)prop-2-en-1-one], the “KRasG12C M.S. Binding Mean adduct %” value in data set [1] turned out to be 75%. In addition, the IC50 in data set [3] was 231 nM.
For `C=CC(=O)N1CCN2c3c(cnc4cc(-c5c(O)cccc5F)c(Cl)cc34)NC[C@H]2C1` [Example 13, 1-((4aS)-11-Chloro-10-(2-fluoro-6-hydroxyphenyl)-1,2,4,4a,5,6-hexahydro-3H-pyrazino[1′,2′:4,5]pyrazino[2,3-c]quinolin-3-yl)prop-2-en-1-one], in that order: 86% and 387 nM.
The matching figures for `C=CC(=O)N1CCN2c3c(cnc4cc(-c5c(O)cccc5F)c(Cl)cc34)N(C)C[C@H]2C1` [Example 14, 1-((4aS)-11-chloro-10-(2-fluoro-6-hydroxyphenyl)-6-methyl-1,2,4,4a,5,6-hexahydro-3H-pyrazino[1′,2′:4,5]pyrazino[2,3-c]quinolin-3-yl)prop-2-en-1-one]: 91% and 132 nM.
The matching figures for `C=CC(=O)N1CCN2c3c(cnc4cc(-c5c(O)cccc5F)c(Cl)cc34)N(C)C(=O)[C@H]2C1` [Example 15, (4aR)-3-Acryloyl-11-chloro-10-(2-fluoro-6-hydroxyphenyl)-6-methyl-2,3,4,4a-tetrahydro-1H-pyrazino[1′,2′:4,5]pyrazino[2,3-c]quinolin-5(6H)-one]: 100% and 145 nM.
For the compound `C=CC(=O)N1CCN2c3c(cnc4cc(-c5c(O)cccc5F)c(Cl)cc34)N(C)C(=O)[C@@H]2C1` [Example 16, (4aS)-3-Acryloyl-11-chloro-10-(2-fluoro-6-hydroxyphenyl)-6-methyl-2,3,4,4a-tetrahydro-1H-pyrazino[1′,2′:4,5]pyrazino[2,3-c]quinolin-5(6H)-one], in data set [1], the “KRasG12C M.S. Binding Mean adduct %” value was found to be 18%. In data set [3], the IC50 amounted to 2700 nM.
